{"source": "patent US9932314B2", "about": "“Pyrazole compounds and their use as T-type calcium channel blockers” (IDORSIA PHARMACEUTICALS LTD, priority 2015, dated 2018)", "biological_target": "T1, voltage-dependent T-type calcium channel subunit alpha-1G (Cav3.2) (Homo sapiens, UniProt O95180)", "T1 construct": "expressed in transfected cells; host or cells: HEK293", "T1 sequence (O95180 whole entry)": "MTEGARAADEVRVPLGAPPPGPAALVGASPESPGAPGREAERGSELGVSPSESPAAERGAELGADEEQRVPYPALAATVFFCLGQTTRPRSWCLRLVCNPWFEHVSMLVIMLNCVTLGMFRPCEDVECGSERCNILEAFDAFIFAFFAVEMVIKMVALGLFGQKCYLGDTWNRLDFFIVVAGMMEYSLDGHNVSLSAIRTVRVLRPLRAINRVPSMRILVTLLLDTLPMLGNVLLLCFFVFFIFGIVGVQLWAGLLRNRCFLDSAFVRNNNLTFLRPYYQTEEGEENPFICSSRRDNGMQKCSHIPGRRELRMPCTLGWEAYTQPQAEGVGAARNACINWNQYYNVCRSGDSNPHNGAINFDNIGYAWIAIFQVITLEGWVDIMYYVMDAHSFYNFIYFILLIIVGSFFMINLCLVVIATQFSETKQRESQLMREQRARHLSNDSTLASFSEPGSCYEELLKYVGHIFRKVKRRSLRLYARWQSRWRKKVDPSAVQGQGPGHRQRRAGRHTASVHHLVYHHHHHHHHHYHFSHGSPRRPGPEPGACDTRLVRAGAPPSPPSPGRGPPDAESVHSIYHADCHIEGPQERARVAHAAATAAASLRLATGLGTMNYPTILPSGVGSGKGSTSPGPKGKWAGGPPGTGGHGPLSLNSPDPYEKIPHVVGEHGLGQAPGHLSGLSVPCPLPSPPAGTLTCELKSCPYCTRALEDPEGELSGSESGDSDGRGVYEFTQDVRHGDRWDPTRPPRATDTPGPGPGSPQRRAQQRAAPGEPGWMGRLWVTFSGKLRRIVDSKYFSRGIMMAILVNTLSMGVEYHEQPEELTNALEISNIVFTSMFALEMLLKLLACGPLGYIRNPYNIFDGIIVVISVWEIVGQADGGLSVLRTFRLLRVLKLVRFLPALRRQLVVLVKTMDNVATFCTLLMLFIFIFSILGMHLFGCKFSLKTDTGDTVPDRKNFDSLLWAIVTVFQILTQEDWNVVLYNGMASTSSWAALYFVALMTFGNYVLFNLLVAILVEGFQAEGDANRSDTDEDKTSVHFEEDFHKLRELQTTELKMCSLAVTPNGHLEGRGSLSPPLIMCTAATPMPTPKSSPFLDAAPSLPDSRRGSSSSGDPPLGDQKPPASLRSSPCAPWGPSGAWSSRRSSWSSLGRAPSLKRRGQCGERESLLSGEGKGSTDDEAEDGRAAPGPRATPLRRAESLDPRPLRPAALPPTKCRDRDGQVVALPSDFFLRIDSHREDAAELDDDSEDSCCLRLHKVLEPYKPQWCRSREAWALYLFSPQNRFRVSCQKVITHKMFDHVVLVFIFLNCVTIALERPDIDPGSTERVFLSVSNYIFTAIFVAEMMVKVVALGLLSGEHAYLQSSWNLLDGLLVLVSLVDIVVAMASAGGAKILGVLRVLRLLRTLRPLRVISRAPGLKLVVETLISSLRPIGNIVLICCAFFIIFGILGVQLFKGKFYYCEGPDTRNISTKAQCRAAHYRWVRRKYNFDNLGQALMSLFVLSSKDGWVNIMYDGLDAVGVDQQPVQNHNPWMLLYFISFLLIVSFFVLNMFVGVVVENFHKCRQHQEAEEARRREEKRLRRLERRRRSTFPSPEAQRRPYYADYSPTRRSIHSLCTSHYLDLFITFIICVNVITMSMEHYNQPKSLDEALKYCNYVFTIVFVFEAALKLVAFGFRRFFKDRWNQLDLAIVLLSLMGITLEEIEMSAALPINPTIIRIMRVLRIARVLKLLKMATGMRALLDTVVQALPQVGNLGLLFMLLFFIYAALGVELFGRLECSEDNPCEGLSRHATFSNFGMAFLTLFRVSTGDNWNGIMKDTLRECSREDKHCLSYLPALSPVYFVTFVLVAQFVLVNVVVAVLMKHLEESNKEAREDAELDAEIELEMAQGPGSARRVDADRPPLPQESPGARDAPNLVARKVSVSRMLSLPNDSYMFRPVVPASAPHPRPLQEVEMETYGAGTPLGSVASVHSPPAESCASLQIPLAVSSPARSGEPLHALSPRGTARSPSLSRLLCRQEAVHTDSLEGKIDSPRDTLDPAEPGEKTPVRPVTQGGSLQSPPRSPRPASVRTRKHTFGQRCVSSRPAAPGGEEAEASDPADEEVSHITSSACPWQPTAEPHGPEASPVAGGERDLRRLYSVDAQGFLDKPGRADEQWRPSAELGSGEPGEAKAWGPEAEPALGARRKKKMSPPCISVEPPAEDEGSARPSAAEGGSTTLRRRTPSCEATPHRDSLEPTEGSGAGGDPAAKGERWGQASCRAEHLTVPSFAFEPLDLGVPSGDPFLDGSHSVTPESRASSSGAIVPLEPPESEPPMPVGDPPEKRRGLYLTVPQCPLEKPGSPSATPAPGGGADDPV", "assay": "FLIPR calcium flux assay, HEK293 cells recombinantly expressing Cav3.2", "type": "cell-based", "details": "Cav3.2-channel, Fluo-4-AM, 3 min incubation, stimulation with 10 mM CaCl2", "method_in_brief": "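HEK293 cells stably expressing human Cav3.2 were loaded with Fluo-4-AM. Compounds diluted in TEAC buffer (pH 7.2) were preincubated for 3 min, then Ca2+ entry was triggered by 10 mM final CaCl2. Inhibition curves were fitted sigmoidally to the area under the fluorescence trace.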", "data": [{"smiles": "N#Cc1ccc(Cn2ccc(NC(=O)Cc3ccc(N4CC(F)C4)nc3)n2)cc1", "note": "[Example 161, N-[1-(4-Cyano-benzyl)-1H-pyrazol-3-yl]-2-[6-(3-fluoro-azetidin-1-yl)-pyridin-3-yl]-acetamide]", "values": [{"measurement": "IC50", "value": 258, "unit": "nM"}]}, {"smiles": "Cn1cc(C(F)(F)F)c2cc(CC(=O)Nc3ccn(Cc4ccc(C#N)cn4)n3)ccc21", "note": "[Example 326, N-[1-(5-Cyano-pyridin-2-ylmethyl)-1H-pyrazol-3-yl]-2-(1-methyl-3-trifluoromethyl-1H-indol-5-yl)-acetamide]", "values": [{"measurement": "IC50", "value": 33, "unit": "nM"}]}, {"smiles": "CC1(COc2ccc(CC(=O)Nc3ccn(Cc4ccc(C#N)cc4)n3)cc2)CC(F)(F)C1", "note": "[Example 298, N-[1-(4-Cyano-benzyl)-1H-pyrazol-3-yl]-2-[4-(3,3-difluoro-1-methyl-cyclobutylmethoxy)-phenyl]-acetamide]", "values": [{"measurement": "IC50", "value": 43, "unit": "nM"}]}, {"smiles": "COc1ccc(Cn2ccc(NC(=O)Cc3ccc(N4CC(F)(F)C4)cc3)n2)cc1", "note": "[Example 51, 2-[4-(3,3-Difluoro-azetidin-1-yl)-phenyl]-N-[1-(4-methoxy-benzyl)-1H-pyrazol-3-yl]-acetamide]", "values": [{"measurement": "IC50", "value": 16, "unit": "nM"}]}, {"smiles": "Cc1cn(C)c2cc(CC(=O)Nc3ccn(Cc4ccc(C#N)cn4)n3)ccc12", "note": "[Example 331, N-[1-(5-Cyano-pyridin-2-ylmethyl)-1H-pyrazol-3-yl]-2-(1,3-dimethyl-1H-indol-6-yl)-acetamide]", "values": [{"measurement": "IC50", "value": 9.6, "unit": "nM"}]}, {"smiles": "O=C(Cc1ccc(N2CC(F)C2)cc1)Nc1ccn(Cc2ccc(F)c(F)c2)n1", "note": "[Example 62, N-[1-(3,4-Difluoro-benzyl)-1H-pyrazol-3-yl]-2-[4-(3-fluoro-azetidin-1-yl)-phenyl]-acetamide]", "values": [{"measurement": "IC50", "value": 3.8, "unit": "nM"}]}, {"smiles": "Cc1cn(C)c2ccc(CC(=O)Nc3ccn(Cc4ccc(F)c(F)c4)n3)cc12", "note": "[Example 260, N-[1-(3,4-Difluoro-benzyl)-1H-pyrazol-3-yl]-2-(1,3-dimethyl-1H-indol-5-yl)-acetamide]", "values": [{"measurement": "IC50", "value": 3.1, "unit": "nM"}]}, {"smiles": "CC(C)c1ccc(CC(=O)Nc2ccn(Cc3ccc(C#N)c(F)c3)n2)cc1", "note": "[Example 266, N-[1-(4-Cyano-3-fluoro-benzyl)-1H-pyrazol-3-yl]-2-(4-isopropyl-phenyl)-acetamide]", "values": [{"measurement": "IC50", "value": 6.6, "unit": "nM"}]}, {"smiles": "CC(C)c1ccc(CC(=O)Nc2ccn(Cc3ccc(F)c(F)c3)n2)cn1", "note": "[Example 88, N-[1-(3,4-Difluoro-benzyl)-1H-pyrazol-3-yl]-2-(6-isopropyl-pyridin-3-yl)-acetamide]", "values": [{"measurement": "IC50", "value": 109, "unit": "nM"}]}, {"smiles": "CN(C)c1ccc(CC(=O)Nc2ccn(Cc3ccc(C(C)(C)C)cc3)n2)cc1", "note": "[Example 18, N-[1-(4-tert-Butyl-benzyl)-1H-pyrazol-3-yl]-2-(4-dimethylamino-phenyl)-acetamide]", "values": [{"measurement": "IC50", "value": 25, "unit": "nM"}]}, {"smiles": "O=C(Cc1ccc(N2CCC2)cc1)Nc1ccn(Cc2ccc(F)cc2)n1", "note": "[Example 53, 2-(4-Azetidin-1-yl-phenyl)-N-[1-(4-fluoro-benzyl)-1H-pyrazol-3-yl]-acetamide]", "values": [{"measurement": "IC50", "value": 6.7, "unit": "nM"}]}, {"smiles": "N#Cc1ccc(Cn2ccc(NC(=O)Cc3ccc(N4CCCC4)nc3)n2)nc1", "note": "[Example 276, N-[1-(5-Cyano-pyridin-2-ylmethyl)-1H-pyrazol-3-yl]-2-(6-pyrrolidin-1-yl-pyridin-3-yl)-acetamide]", "values": [{"measurement": "IC50", "value": 188, "unit": "nM"}]}, {"smiles": "COCCN(C)c1ccc(CC(=O)Nc2ccn(Cc3ccc(F)c(F)c3)n2)cc1", "note": "[Example 126]", "values": [{"measurement": "IC50", "value": 3.4, "unit": "nM"}]}, {"smiles": "Cn1ccc2cc(CC(=O)Nc3ccn(Cc4ccc(C#N)cn4)n3)ccc21", "note": "[Example 301, N-[1-(5-Cyano-pyridin-2-ylmethyl)-1H-pyrazol-3-yl]-2-(1-methyl-1H-indol-5-yl)-acetamide]", "values": [{"measurement": "IC50", "value": 71, "unit": "nM"}]}, {"smiles": "N#Cc1ccc(Cn2ccc(NC(=O)Cc3ccc(C4(F)COC4)cc3)n2)cc1", "note": "[Example 250, N-[1-(4-Cyano-benzyl)-1H-pyrazol-3-yl]-2-[4-(3-fluoro-oxetan-3-yl)-phenyl]-acetamide]", "values": [{"measurement": "IC50", "value": 127, "unit": "nM"}]}, {"smiles": "N#Cc1ccc(Cn2ccc(NC(=O)Cc3ccc(N4CC(F)(F)C4)nc3)n2)cc1", "note": "[Example 144, N-[1-(4-Cyano-benzyl)-1H-pyrazol-3-yl]-2-[6-(3,3-difluoro-azetidin-1-yl)-pyridin-3-yl]-acetamide]", "values": [{"measurement": "IC50", "value": 160, "unit": "nM"}]}]}
